In ChEMBL document CHEMBL5604061, “ASAP - WNV NS2B-NS3 protease fluorescence dose response” (2024):

Molecular target: T1, NS3 (West Nile virus, UniProt K4FQI5)
T1 sequence (K4FQI5 whole entry): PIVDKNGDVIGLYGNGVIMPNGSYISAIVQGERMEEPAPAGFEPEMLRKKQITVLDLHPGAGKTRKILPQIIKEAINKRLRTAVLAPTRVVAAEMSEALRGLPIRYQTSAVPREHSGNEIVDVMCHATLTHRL
Experiment: Functional biochemical assay to identify treatments for viral infectious disease that targets West Nile NS2B-NS3 protease. Utilizing a direct enzyme activity measurement method, reading the fluorescence intensity is used to characterize the relative potency of inhibitors as IC50.
Design: species or system NY-99

Row | SMILES | IC50
1 | O=C(Nc1cc(Cl)cc([C@H](C#CCO)Nc2cccc(-c3nn[nH]n3)c2)c1)OCc1ccccc1 | 34.2 µM
2 | O=C(Nc1ccc2c(c1)CNC2)c1cc(Cl)cc2cn[nH]c12 | 7.83 µM
3 | NCc1ccc(-c2ncc(OCC3CCNCC3)nc2-c2ccc(-c3ccoc3)cc2)cc1 | 98.4 µM
4 | NCc1cccc(CNC(=O)[C@H](NC(=O)OCc2ccccc2)c2ccc(OCc3ccccc3)cc2)c1 | 13.3 µM
5 | O=C(Nc1ccc2c(c1)CNC2)c1cc(F)cc2[nH]cnc12 | 13.5 µM
6 | Cc1ncc(-c2cc(F)cc(C(=O)Nc3ccc4c(c3)CNC4)c2)s1 | 2.28 µM
7 | NCc1cccc(NC(=O)[C@H]2[C@H]3CCCCC[C@H]3[C@H]2NC(=O)OCc2ccccc2)c1 | 47.1 µM
8 | C=CC[C@H]1NCc2cc(NC(=O)c3cc(Cl)cc4[nH]ncc34)ccc21 | 14.1 µM
9 | CNC(=O)[C@H](Nc1ccc2c(c1)CNC2)c1cc(Cl)cc2c1OCC2 | 3.8 µM
10 | O=C(Nc1ccc2c(c1)CNC2)c1cc(F)cc(C2=CCCOC2)c1 | 9.61 µM
11 | O=C(NCC(F)F)[C@H](Nc1ccc2c(c1)CNC2)c1cc(Cl)cc2ccoc12 | 0.185 µM
12 | N=C(N)NCCc1ccccc1B(O)O | > 100 µM
13 | NCCc1ccc([C@H]2C[C@@H]2c2cc(Cl)cc(NC(=O)OCc3ccccc3)c2)cc1 | 7.12 µM
14 | CC(C)c1nc2c(C(=O)Nc3ccc4c(c3)CNC4)cc(Br)cc2[nH]1 | > 99.5 µM
15 | O=C(Nc1ccc2c(c1)CNC2)c1cc(Cl)cc2[nH]c(-c3ccnn3C3CC3)nc12 | 18.6 µM
16 | Cc1cc(-c2ccc([C@@H](NC(=O)OCc3ccccc3)C(=O)Nc3cccc(CN)c3)cc2)cs1 | 3.42 µM
17 | CCc1ccc(-c2nc3c(C(=O)Nc4ccc5c(c4)CNC5)cc(Cl)cc3[nH]2)cc1 | 32 µM

Row | SMILES | IC50
18 | CCOCCNC(=O)[C@H](Nc1ccc2c(c1)CNC2)c1cc(Cl)cc2[nH]ncc12 | 0.465 µM
19 | Cn1ncc2c(C(=O)Nc3ccc4c(c3)CNC4)cc(Cl)cc21 | 1.88 µM
20 | O=C(Nc1ccc2c(c1)CNC2)c1cc(Cl)ccc1-n1cncn1 | 42.7 µM
21 | NCc1cc(/C=C/C(=O)O)cc(NC(=O)c2cc(Cl)cc(NC(=O)OCc3ccccc3)c2)c1 | 85 µM
22 | O=C(NC1CCOCC1)[C@H](Nc1ccc2c(c1)CNC2)c1cc(Cl)cc2[nH]ncc12 | 0.115 µM
23 | O=C(Nc1ccc2c(c1)CNC2)c1cc(Cl)cc2nn(C3COC3)cc12 | 42.5 µM
24 | O=C(Nc1ccc2c(c1)CNC2)c1cc(F)cc2c1CCNC2 | 1.36 µM
25 | O=C(Nc1ccc2c(c1)CNC2)c1cc(Cl)cc2ccccc12 | 14.7 µM
26 | COc1cccc(-c2nc3c(C(=O)Nc4ccc5c(c4)CNC5)cc(F)cc3[nH]2)c1 | 6.6 µM
27 | N=C(N)NCCc1ccc(OC(=O)Nc2ccccc2)cc1 | > 100 µM
28 | Cc1cnccc1-c1cc(NC(=O)c2cc(F)cc3[nH]ncc23)cc2c1CNC2 | 2.77 µM
29 | O=C(Nc1cc2c(c(C3=CC[C@H](O)CC3)c1)CNC2)c1cc(Cl)cc2[nH]ncc12 | 3.82 µM
30 | CCOC(=O)c1ncoc1CNC(=O)[C@H](Nc1ccc2c(c1)CNC2)c1cc(Cl)cc(C2CC2)c1 | 3.04 µM
31 | COC(=O)c1cc2c(cc1NC(=O)c1cc(F)cc3[nH]ncc13)CNC2 | 1 µM
32 | O=C(Nc1ccccc1)OCc1ccccc1 [BENZYL PHENYLCARBAMATE] | > 100 µM
33 | O=C(Nc1ccc2c(c1)CNC2)c1cc(Cl)cc2c1NCCC2 | > 99.5 µM
